Results taken from PubChem BioAssay (NCI).
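Briefly, cells in 96-well plates were exposed to five compound concentrations for 48 h, and endpoints were estimated by linear interpolation. GI50 = concentration required for 50% inhibition of growth. Definition used: TGI = concentration required for complete inhibition of growth.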

How the values were obtained:
Assay in all cases: NCI anticancer screen, dose series, 48 h; in the data active = GI50 below about 0.43 µM; inactive = the rest
[1] = tested on: 786-0 renal
[2] = tested on: A498 renal
[3] = tested on: A549 NSCLC
[4] = tested on: ACHN renal
[5] = tested on: BT-549 breast
[6] = tested on: CAKI-1 renal
[7] = tested on: CCRF-CEM leukemia
[8] = tested on: COLO 205 colon
[9] = tested on: DU-145 prostate
[10] = tested on: EKVX NSCLC
[11] = tested on: HCC-2998 colon
[12] = tested on: HCT-116 colon
[13] = tested on: HCT-15 colon
[14] = tested on: HL-60(TB) leukemia
[15] = tested on: HOP-62 NSCLC
[16] = tested on: HOP-92 NSCLC
[17] = tested on: HS 578T breast
[18] = tested on: HT29 colon
[19] = tested on: IGROV1 ovarian
[20] = tested on: K-562 leukemia
[21] = tested on: KM12 colon
[22] = tested on: LOX IMVI melanoma
[23] = tested on: M14 melanoma
[24] = tested on: MALME-3M melanoma
[25] = tested on: MCF7 breast
[26] = tested on: MDA-MB-231 breast
[27] = tested on: MDA-MB-435
[28] = tested on: MDA-MB-468 breast
[29] = tested on: MOLT-4 leukemia
[30] = tested on: NCI-H226 lung
[31] = tested on: NCI-H23 lung
[32] = tested on: NCI-H460 lung
[33] = tested on: NCI-H522 lung
[34] = tested on: NCI/ADR-RES ovarian
[35] = tested on: OVCAR-3 ovarian
[36] = tested on: OVCAR-4 ovarian
[37] = tested on: OVCAR-5 ovarian
[38] = tested on: OVCAR-8 ovarian
[39] = tested on: PC-3 prostate
[40] = tested on: RPMI-8226 leukemia
[41] = tested on: SF-268 CNS
[42] = tested on: SF-295 CNS
[43] = tested on: SF-539 CNS
[44] = tested on: SK-MEL-2 melanoma
[45] = tested on: SK-MEL-28 melanoma
[46] = tested on: SK-MEL-5 melanoma
[47] = tested on: SK-OV-3 ovarian
[48] = tested on: SN12C renal
[49] = tested on: SNB-19 CNS
[50] = tested on: SNB-75 CNS
[51] = tested on: SR leukemia
[52] = tested on: SW-620 colon
[53] = tested on: T-47D breast
[54] = tested on: TK-10 renal
[55] = tested on: U251 CNS
[56] = tested on: UACC-257 melanoma
[57] = tested on: UACC-62 melanoma
[58] = tested on: UO-31 renal

COc1cc(/C=C/C(=O)c2ccc(C)cc2)ccc1Oc1nc(Nc2ccc(F)cc2)nc(N(C)C)n1
20.3 µM: TGI [48]
57.3 µM: TGI [16]
44.3 µM: TGI [42]
16.8 µM: TGI [13]
21.7 µM: TGI [46]
3.51 µM: TGI [22]
20.2 µM: TGI [25]
89.5 µM: TGI [17]
19.6 µM: TGI [30]
30.7 µM: TGI [4]
33.3 µM: TGI [24]
31.8 µM: TGI [28]
27.7 µM: TGI [29] | TGI [31]
31.3 µM: TGI [45]
> 100 µM: TGI [2] | TGI [3] | TGI [6] | TGI [7] | TGI [8] | TGI [9] | TGI [10] | TGI [14] | TGI [15] | TGI [20] | TGI [21] | TGI [35] | TGI [39] | TGI [40] | TGI [41] | TGI [47] | TGI [50] | TGI [53] | TGI [54] | TGI [56]
82.2 µM: TGI [38]
5.85 µM: TGI [12]
inactive: GI50 [1] 13.3 µM | GI50 [2] 41.8 µM | GI50 [3] 45.8 µM | GI50 [4] 9.58 µM | GI50 [5] 6.27 µM | GI50 [6] 6.43 µM | GI50 [7] 3.92 µM | GI50 [8] 41.7 µM | GI50 [9] 25.8 µM | GI50 [10] 6.71 µM | GI50 [11] 20.5 µM | GI50 [12] 2.28 µM | GI50 [13] 4.73 µM | GI50 [14] 19.1 µM | GI50 [15] 32.2 µM | GI50 [16] 4.57 µM | GI50 [17] 7.24 µM | GI50 [18] 8.15 µM | GI50 [19] 13.8 µM | GI50 [20] 4.2 µM | GI50 [21] 19.3 µM | GI50 [22] 1.84 µM | GI50 [23] 14.7 µM | GI50 [24] 15.4 µM | GI50 [25] 3.57 µM | GI50 [26] 5.24 µM | GI50 [27] 11.4 µM | GI50 [28] 4.64 µM | GI50 [29] 2.8 µM | GI50 [30] 5.22 µM | GI50 [31] 5.52 µM | GI50 [32] 12.1 µM | GI50 [33] 9.76 µM | GI50 [34] 5.97 µM | GI50 [35] 13 µM | GI50 [36] 7.94 µM | GI50 [37] 16.5 µM | GI50 [38] 7.19 µM | GI50 [39] 8.86 µM | GI50 [40] 3 µM | GI50 [41] 13.9 µM | GI50 [42] 8.61 µM | GI50 [43] 7.64 µM | GI50 [44] 8.83 µM | GI50 [45] 12.3 µM | GI50 [46] 5.14 µM | GI50 [47] 48.9 µM | GI50 [48] 3.89 µM | GI50 [49] 11.1 µM | GI50 [50] 15.4 µM | GI50 [51] 3.25 µM | GI50 [52] 2.36 µM | GI50 [53] 3.57 µM | GI50 [54] 18.2 µM | GI50 [55] 3.32 µM | GI50 [56] 8.76 µM | GI50 [57] 10.1 µM | GI50 [58] 4.2 µM
70.6 µM: TGI [51]
37.5 µM: TGI [18]
18.7 µM: TGI [26]
53.6 µM: TGI [1]
27.3 µM: TGI [49]
26.8 µM: TGI [5]
54.3 µM: TGI [23]
27.5 µM: TGI [34]
67.4 µM: TGI [44]
42.8 µM: TGI [32] | TGI [57]
53.2 µM: TGI [33]
28.4 µM: TGI [27]
68 µM: TGI [37]
20.1 µM: TGI [43]
73.4 µM: TGI [11]
5.75 µM: TGI [52]
74.5 µM: TGI [36]
44.1 µM: TGI [58]
28.8 µM: TGI [55]
36.9 µM: TGI [19]
